Measured values published in patent publication US20260061056A1, “RINSE SOLUTION FOR A PHOTODYNAMIC DISINFECTION” (MANA HEALTH TECHNOLOGIES GMBH, priority 2022, published 2026).

Key:
[1] = system: Streptococcus mutans; experiment: photodynamic effect of rinsing solution against S. mutans bacterial suspension, photosensitiser concentration series (FIG. 2); type: cell-based; settings: irradiation 300 s; for microorganism content after irradiation: 17-21 J/cm^2
Description: The corresponding comparative value was approx. 3.2·10^7 CFU/ml. The other bars of the graph each show the reduction in the microorganism content when using the (here: single) photosensitiser at different concentrations, including such concentrations that differ from the disclosed subject matter, in the rinsing solution after effective irradiation for 300 s with between 10 and 45 J/cm^2, in the present case between 17 and 21 J/cm^2.
As the other bars R50, R125 and R250 show, the microorganism content increases again with increasing photosensitiser concentration of 0.5 wt. % (R50), 1.25 wt. % (R125) and 2.5 wt. % (R250), i.e. to approx. 1.6·10^5 CFU/ml, approx. 1.1·10^6 CFU/ml and approx. 2.9·10^6 CFU/ml, respectively. This means that despite the higher concentration of the photosensitiser and the higher number of free radicals to be expected as a result, the efficacy of the disinfection is reduced.

[2] = absorption spectrum of the photosensitiser (FIG. 1); type: physicochemical; settings: absorption spectrum A of the photosensitiser in rinsing solution
Description: The absorption spectrum A of the photosensitiser used here (dotted line in FIG. 1) has a maximum at a wavelength A of around 445 nm. To activate the photosensitiser, irradiation in the range of this wavelength—or optionally, as in the present example, with a broadband radiation source that also encompasses this range—is therefore effective. […] If more than one photosensitiser is used, this generally results in several absorption maxima to which the radiation source or its radiation spectrum must be adapted.

SMILES: Cc1cc2nc3c(=O)[nH]c(=O)nc-3n(C[C@H](O)[C@H](O)[C@H](O)COP(=O)([O-])O)c2cc1C.[Na+] [riboflavin 5′-phosphate sodium, Riboflavin 5′-phosphate sodium]
- microorganism content after irradiation ([1]; 0.01 wt. % photosensitiser in rinsing solution (bar R01), growth control approx. 3.2·10^7 CFU/ml): approx. 2.1·10^6 CFU/ml
- reduction of microorganism content versus growth control ([1]; 0.01 wt. % photosensitiser): more than an order of magnitude
- microorganism content after irradiation ([1]; 0.25 wt. % photosensitiser in rinsing solution (bar R25)): approx. 2.0·10^4 CFU/ml
- microorganism content as fraction of the comparative value ([1]; 0.25 wt. % photosensitiser): less than 1/1000
- reduction of microorganism content versus growth control ([1]; 0.25 wt. % photosensitiser): more than 3 orders of magnitude
- microorganism content after irradiation ([1]; 0.5 wt. % photosensitiser (bar R50)): approx. 1.6·10^5 CFU/ml
- microorganism content after irradiation ([1]; 1.25 wt. % photosensitiser (bar R125)): approx. 1.1·10^6 CFU/ml
- microorganism content after irradiation ([1]; 2.5 wt. % photosensitiser (bar R250)): approx. 2.9·10^6 CFU/ml
- absorption maximum wavelength [2]: around 445 nm
